# Test system: d27-1/GFP HSV-1
# Assay: Effect of valproic acid pretreatment on d27-1/GFP HSV-1 viral titer in V27 cells
# Type: cell-based
# Description: Valproic acid (Sigma-P4543) was dissolved to 1 M concentration in water. V27 cells were seeded into six well plates the day prior to infection at 6×10^5 cells/well. […] This was vortexed well and added to the wells. Plates were incubated for six hours, aspirated and infectious HSV-1 d27-1 stock added at MOI 0.15 (=cell seed density×0.15/pfu titer of HSV stock) per 1 ml of DMEM (no additives).
# 1 ml of infectious inoculum was added per well and incubated for 1-2 hours at 37° C., 5% CO2 incubator after which time 1.5 ml of DMEM-10% FBS was added. The plates were returned to the incubator for 70-74 hours. Free media was harvested, vortexed, and centrifuged at 1,100×g for 10 minutes at 4° C. Supernatant was transferred to a new dispensing tube, vortexed, and aliquoted. Stocks were frozen at −80° C.
# V27 cells were seeded into six well plates the day prior to infection at 6×10^5 cells/well and the next day, different concentrations of VA were added to wells. Plates were incubated for 6 hrs, aspirated and ⅖ vol of media containing infectious HSV-1 d27-1 stock was added and incubated for 1-2 hours at 37° C., […] after which time ⅗ vol of DMEM 10% FBS media was added. The cultures were returned to the incubator and supernatant was harvested after 70-74 hours.
smiles,measurement,setting,value
"CCCC(CCC)C(=O)O [VA, valproic acid]",titer of d27-1/GFP HSV-1 compared to untreated control,"VA 5 mM, 6 hrs pretreatment",slightly elevated
same,titer of d27-1/GFP HSV-1 compared to untreated control,"VA concentrations below and above 5 mM, pretreatment",inhibitory effect

# Source: US11299715B2, “Use of iNOS inhibitors to increase viral yield in culture” (priority 2013, dated 2022)
